Test results published in ChEMBL document CHEMBL3886721, “Thienopyrimidine compounds and use thereof” (2016).

Biological target: T1, Gonadotropin-releasing hormone receptor (Macaca fascicularis, UniProt G7P5Q7)
T1 sequence (G7P5Q7 whole entry): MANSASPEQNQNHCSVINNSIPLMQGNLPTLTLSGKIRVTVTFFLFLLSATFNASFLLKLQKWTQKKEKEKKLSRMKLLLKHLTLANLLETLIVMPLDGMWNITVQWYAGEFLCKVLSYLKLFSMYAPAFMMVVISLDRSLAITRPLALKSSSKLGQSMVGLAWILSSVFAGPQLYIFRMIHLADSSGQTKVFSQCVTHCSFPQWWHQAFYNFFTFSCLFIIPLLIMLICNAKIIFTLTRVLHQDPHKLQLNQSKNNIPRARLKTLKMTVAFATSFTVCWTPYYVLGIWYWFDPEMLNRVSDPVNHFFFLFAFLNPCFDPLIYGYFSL
Assay: 125I-Leuprorelin Binding Assay: The monkey and human membrane fractions prepared were diluted with the assay buffer to yield a 200 µg/ml dilution, each of which was then dispensed at 188 μl per tube. To a tube containing the cell membrane fraction of the CHO with monkey GnRH receptors expressed were added 2 μl of a solution of 20 mM compound in 60% DMSO and 10 μl of 38 nM 125I-leuprorelin. To a tube containing the cell membrane fraction of the CHO with human GnRH receptors expressed were added 2 μl of a solution of 2 mM compound in 60% DMSO and 10 μl of 38 nM 125I-leuprorelin. To determine maximum binding quantity, a reaction mixture containing 2 μl of 60% DMSO and 10 μl of 38 nM 125I-leuprorelin was prepared. To determine non-specific binding amount, a reaction mixture containing 2 μl of a solution of 100 μM leuprorelin in 60% DMSO and 10 μl of 38 nM 125I-leuprorelin was prepared.

CCOCCN(C)Cc1c(-c2ccc(NC(=O)NOC)cc2)sc2c1c(=O)n(-c1ccccn1)c(=O)n2Cc1c(F)cccc1F
IC50: 3 nM
